The values below come from ChEMBL document CHEMBL3286349 (Bioorg Med Chem Lett, 2014).

The target in assay [1] is T1, Peroxisome proliferator-activated receptor alpha (Rattus norvegicus) (UniProt P37230).
T1 sequence (whole entry): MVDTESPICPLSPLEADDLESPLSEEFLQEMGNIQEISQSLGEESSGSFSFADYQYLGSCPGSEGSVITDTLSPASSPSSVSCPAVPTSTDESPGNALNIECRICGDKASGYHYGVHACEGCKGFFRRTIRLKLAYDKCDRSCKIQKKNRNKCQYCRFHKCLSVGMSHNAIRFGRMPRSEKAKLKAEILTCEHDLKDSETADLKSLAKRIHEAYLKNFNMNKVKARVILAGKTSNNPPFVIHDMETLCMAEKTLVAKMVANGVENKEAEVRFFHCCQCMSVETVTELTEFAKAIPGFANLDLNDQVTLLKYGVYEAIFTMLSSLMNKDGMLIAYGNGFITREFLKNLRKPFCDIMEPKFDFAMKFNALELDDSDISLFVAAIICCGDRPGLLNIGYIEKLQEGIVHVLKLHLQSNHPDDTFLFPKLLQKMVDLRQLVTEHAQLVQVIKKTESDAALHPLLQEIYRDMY
The assay can be described thus: Agonist activity at PPARalpha in lipid loaded rat HII4E cells assessed as induction of fatty acid uptake at 1 uM after 24 hrs by flow cytometry analysis relative to control. It is filed as cell-based. A general note: Flow cytometry measures light scatter and fluorescence of single cells or particles in a stream.

Assay [2] addresses T1, Peroxisome proliferator-activated receptor alpha (Rattus norvegicus). The assay can be described thus: Agonist activity at PPARalpha in lipid loaded rat HII4E cells assessed as reduction of intracellular triglyceride level at 100 uM after 24 hrs relative to control. The class given is cell-based. The arrangement: scale not given: the % may be the effect or the level left.

Assay [3] concerns the target T2, Peroxisome proliferator-activated receptor alpha (Homo sapiens, UniProt Q07869).
T2 sequence (Q07869 whole entry): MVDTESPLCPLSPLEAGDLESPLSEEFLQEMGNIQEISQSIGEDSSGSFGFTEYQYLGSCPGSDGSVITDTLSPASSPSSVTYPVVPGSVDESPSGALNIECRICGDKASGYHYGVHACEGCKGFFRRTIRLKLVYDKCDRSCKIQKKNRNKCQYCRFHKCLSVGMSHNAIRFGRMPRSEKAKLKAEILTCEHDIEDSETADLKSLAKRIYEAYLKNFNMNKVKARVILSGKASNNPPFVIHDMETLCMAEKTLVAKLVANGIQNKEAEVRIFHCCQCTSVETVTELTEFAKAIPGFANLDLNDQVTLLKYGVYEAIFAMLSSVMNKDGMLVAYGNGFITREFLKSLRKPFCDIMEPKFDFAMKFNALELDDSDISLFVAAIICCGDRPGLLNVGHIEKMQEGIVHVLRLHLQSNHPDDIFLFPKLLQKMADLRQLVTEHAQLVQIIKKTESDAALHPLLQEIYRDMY
The assay can be described thus: Agonist activity at PPARalpha LBD (unknown origin) assessed as induction of PGC1alpha co-activator activity by TR-FRET analysis. Background: In TR-FRET formats the signal depends on donor and acceptor labels being close together.

The target of assay [4] is T1, Peroxisome proliferator-activated receptor alpha (Rattus norvegicus). The assay can be described thus: Agonist activity at PPARalpha in lipid loaded rat HII4E cells assessed as reduction of intracellular cholesterol level at 500 uM after 24 hrs relative to control. The class given is cell-based. The arrangement: scale not given: the % may be the effect or the level left.

Assay [5] has the same target. The assay can be described thus: Agonist activity at PPARalpha in lipid loaded rat HII4E cells assessed as increase of FATP4 gene expression at 100 uM after 24 hrs by qPCR analysis relative to control. It is filed as cell-based. Background: In qPCR the cycle at which signal appears reflects the starting amount.
The nature of assay [6]: Reduction of intracellular cholesterol level in lipid loaded rat HII4E cells expressing PPARgamma siRNA after 24 hrs. It is filed as functional, cell-based.
For assay [7], the target named is T1, Peroxisome proliferator-activated receptor alpha (Rattus norvegicus). Kind of assay: Agonist activity at PPARalpha in lipid loaded rat HII4E cells assessed as increase of ACOX gene expression at 500 uM after 24 hrs by qPCR analysis relative to control. The class given is cell-based.
Assay [8] has the same target. Kind of assay: Agonist activity at PPARalpha in lipid loaded rat HII4E cells assessed as induction of transcriptional activity at 100 uM after 24 hrs by qPCR analysis relative to control. It is filed as cell-based.
Assay [9] has the same target. Kind of assay: Agonist activity at PPARalpha in lipid loaded rat HII4E cells assessed as increase of CPT1 gene expression at 500 uM after 24 hrs by qPCR analysis relative to control. The class given is cell-based.
For assay [10] the target is unchanged. The assay can be described thus: Agonist activity at PPARalpha in lipid loaded rat HII4E cells assessed as induction of transcriptional activity at 500 uM after 24 hrs by qPCR analysis relative to control. It is filed as cell-based.
Assay [11] has the same target. Kind of assay: Agonist activity at PPARalpha in lipid loaded rat HII4E cells assessed as increase of acyl-CoA synthetase gene expression at 500 uM after 24 hrs by qPCR analysis relative to control. The class given is cell-based.
For assay [12] the target is unchanged. Kind of assay: Agonist activity at PPARalpha in lipid loaded rat HII4E cells assessed as reduction of intracellular cholesterol level at 100 uM after 24 hrs relative to control. The class given is cell-based. More on the design: scale not given: the % may be the effect or the level left.
For assay [13] the target is unchanged. Kind of assay: Agonist activity at PPARalpha in lipid loaded rat HII4E cells assessed as induction of fatty acid uptake at 100 to 500 uM after 24 hrs by flow cytometry analysis relative to control. The class given is cell-based.
A short description of assay [14]: Reduction of intracellular triglyceride level in lipid loaded rat HII4E cells expressing PPARgamma siRNA after 24 hrs. The class given is functional, cell-based.
The nature of assay [15]: Reduction of intracellular cholesterol level in lipid loaded rat HII4E cells expressing PPARalpha siRNA at 10 to 500 uM after 24 hrs. It is filed as functional, cell-based.
The target of assay [16] is T1, Peroxisome proliferator-activated receptor alpha (Rattus norvegicus). Kind of assay: Agonist activity at PPARalpha in lipid loaded rat HII4E cells assessed as reduction of intracellular cholesterol level after 24 hrs. The class given is cell-based.
The target in assay [17] is T2, Peroxisome proliferator-activated receptor alpha. Kind of assay: Binding affinity to PPARalpha LBD (unknown origin) by surface plasmon resonance assay.
The target in assay [18] is T1, Peroxisome proliferator-activated receptor alpha (Rattus norvegicus). Kind of assay: Agonist activity at PPARalpha in lipid loaded rat HII4E cells assessed as increase of FATP4 gene expression at 500 uM after 24 hrs by qPCR analysis relative to control. It is filed as cell-based.
Assay [19] in a line: Reduction of intracellular triglyceride level in lipid loaded rat HII4E cells expressing PPARalpha siRNA at 10 to 500 uM after 24 hrs. It is filed as functional, cell-based.
Assay [20] has as its target T1, Peroxisome proliferator-activated receptor alpha (Rattus norvegicus). Kind of assay: Agonist activity at PPARalpha in lipid loaded rat HII4E cells assessed as increase of acyl-CoA synthetase gene expression at 100 uM after 24 hrs by qPCR analysis relative to control. The class given is cell-based.
In assay [21] the target is T3, Peroxisome proliferator-activated receptor alpha (Homo sapiens) (UniProt Q07869).
T3 sequence (whole entry): T2 sequence (Q07869 whole entry)
The assay can be described thus: Agonist activity at PPARalpha (unknown origin) expressed in CHOK1 cells assessed as induction of transactivation activity at 500 uM after 24 hrs by luciferase reporter gene assay relative to control. It is filed as cell-based. The settings on record: CHO-K1.

Assay [22] has as its target T1, Peroxisome proliferator-activated receptor alpha (Rattus norvegicus). The assay can be described thus: Agonist activity at PPARalpha in lipid loaded rat HII4E cells assessed as reduction of intracellular triglyceride level at 500 uM after 24 hrs relative to control. The class given is cell-based. The arrangement: scale not given: the % may be the effect or the level left.

Assay [23] addresses T3, Peroxisome proliferator-activated receptor alpha (Homo sapiens). The assay can be described thus: Agonist activity at PPARalpha (unknown origin) expressed in CHOK1 cells assessed as induction of transactivation activity at 100 uM after 24 hrs by luciferase reporter gene assay relative to control. It is filed as cell-based. The settings on record: CHO-K1.

The structures appear in SMILES notation. Calls of active or inactive are those of the source. No cut-off for these calls is given here. Residues, ends and D or L forms follow the SMILES beside them.

In general, EC50 refers to the concentration that produces a half-maximal response. The term Kd denotes the concentration at which binding is half-saturated.

As to `CC(C)(Sc1ccc(CCN(CCCCC2CCCCC2)C(=O)NC2CCCCC2)cc1)C(=O)O`, the outcome in assay [1] was Active.

Consider `N[C@@H](Cc1c[nH]c2ccccc12)C(=O)N[C@@H](CCC(=O)O)C(=O)O` (H-Trp-Glu-OH), for which the Activity in assay [2] was 14%; in [4], 21%; in assay [6], “Dose-dependent effect”; in assay [12], 14%; in assay [14], “Dose-dependent effect”; in assay [16], “Dose-dependent effect”. Also, the Activity in assay [21] came out at 62%; in [22], 16%; in [23], 53%. Further, in assay [3], the EC50 turned out to be 83.4 µM. Besides, the fold change (FC) amounted to 1.6 in assay [5]; 1.4 in assay [7]; 1.8 in [8]; 1.6 in assay [9]; 1.9 in assay [10]; 1.5 in assay [11]. The fold change (FC) was found to be 1.2 in assay [13], 1.7 in assay [18] and 1.4 in [20]. The outcome in assay [15] and in assay [19] was inactive. The affinity in [17], expressed as Kd, was 120 µM.
